Measured values published in patent US11339171B2, “MDM2 inhibitors” (Gan & Lee Pharmaceuticals, priority 2017, dated 2022).
Like-named read-outs stand apart in the source and are kept apart here.

How the values were obtained:
[1] = target: T1, MDM2 (Homo sapiens, UniProt Q00987); assay: Inhibition test of MDM2-P53 (GST-MDM2, Biotin-P53, Anti-GST-Tb, SA-XL665); type: binding
T1 construct: made in house
Outline: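 Compounds, serially diluted 5-fold (twelve concentrations), were shaken for 90 min at 25° C with a mix of GST-MDM2 (4 nM final), Biotin-P53, anti-GST-Tb and SA-XL665. Buffer: 1×PBS, 0.1% BSA, 5 mM DTT, 1 mM AEBSF; signal read on a microplate reader.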

[2] = test system: human osteosarcoma cell line SJSA-1; assay: Inhibition of proliferation of human osteosarcoma cell line SJSA-1 (DAPI staining, In Cell Analyzer)
[3] = Homo sapiens, SJSA-1, 72 h, read-out: IC50 (nM), inhibitory activity on proliferation of human osteosarcoma cell line SJSA-1, SJSA-1, incubated 72 h

T1 sequence (Q00987 whole entry): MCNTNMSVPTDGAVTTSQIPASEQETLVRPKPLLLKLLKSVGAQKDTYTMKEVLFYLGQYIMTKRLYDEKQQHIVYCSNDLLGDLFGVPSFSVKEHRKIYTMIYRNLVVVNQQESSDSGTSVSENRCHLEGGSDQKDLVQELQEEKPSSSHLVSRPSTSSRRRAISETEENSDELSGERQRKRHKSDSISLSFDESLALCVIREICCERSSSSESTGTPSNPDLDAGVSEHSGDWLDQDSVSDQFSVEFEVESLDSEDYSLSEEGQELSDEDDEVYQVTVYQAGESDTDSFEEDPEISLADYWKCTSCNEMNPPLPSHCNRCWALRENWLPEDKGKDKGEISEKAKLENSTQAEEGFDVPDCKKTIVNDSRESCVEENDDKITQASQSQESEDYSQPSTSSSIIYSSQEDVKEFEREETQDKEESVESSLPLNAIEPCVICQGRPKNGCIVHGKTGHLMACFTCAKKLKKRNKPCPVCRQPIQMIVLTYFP

COc1ncc(-c2nc3c(n2C(C)C)[C@]2(C(=O)Nc4cc(Cl)ccc42)N(c2cc(Cl)ccc2C)C3=O)c(OC)n1 [Example R-2, (R)-6-chloro-5′-(5-chloro-2-methylphenyl)-2′-(2,4-dimethoxypyrimidin-5-yl)-3′-isopropyl-3′H-spiro[dihydroindole-3,4′-pyrrolo[3,4-d]imidazole]-2,6′(5′H)-dione]
IC50 [1]: 117 nM
IC50 [2, 3]: 2770 nM

COc1ncc(-c2nc3c(n2C(C)C)[C@]2(C(=O)Nc4cc(Cl)ccc42)N(c2ccc(F)c(Cl)c2)C3=O)c(OC)n1 [Example R-3, (R)-6-chloro-5′-(3-chloro-4-fluorophenyl)-2′-(2,4-dimethoxypyrimidin-5-yl)-3′-isopropyl-3′H-spiro[dihydroindole-3,4′-pyrrolo[3,4-d]imidazole]-2,6′(5′H)-dione]
IC50 [1]: 1190 nM
IC50 [2, 3]: 16300 nM

COc1cc(F)ccc1-c1nc2c(n1C(C)C)[C@]1(C(=O)Nc3cc(Cl)ccc31)N(c1cc(Cl)ccc1C)C2=O [Example R-4, (R)-6-chloro-5′-(5-chloro-2-methylphenyl)-2′-(4-fluoro-2-methoxyphenyl)-3′-isopropyl-3′H-spiro[dihydroindole-3,4′-pyrrolo[3,4-d]imidazole]-2,6′(5′H)-dione]
IC50 [1]: 132 nM
IC50 [2, 3]: 2190 nM

COc1ccccc1-c1nc2c(n1C(C)C)[C@]1(C(=O)Nc3cc(Cl)ccc31)N(c1cc(Cl)ccc1C)C2=O [Example R-5, (R)-6-chloro-5′-(5-chloro-2-methylphenyl)-3′-isopropyl-2′-(2-methoxyphenyl)-3′H-spiro[dihydroindole-3,4′-pyrrolo[3,4-d]imidazole]-2,6′(5′H)-dione]
IC50 [1]: 109 nM
IC50 [2, 3]: 1600 nM

COc1ccc(-c2nc3c(n2C(C)C)[C@]2(C(=O)Nc4cc(Cl)ccc42)N(c2cc(Cl)ccc2C)C3=O)c(OC)n1 [Example R-8, (R)-6-chloro-5′-(5-chloro-2-methylphenyl)-2′-(2,6-dimethoxypyridin-3-yl)-3′-isopropyl-3′H-spiro[dihydroindole-3,4′-pyrrolo[3,4-d]imidazole]-2,6′(5′H)-dione]
IC50 [1]: 329 nM
IC50 [2, 3]: 2290 nM

COc1ccc(-c2nc3c(n2C(C)C)[C@]2(C(=O)Nc4cc(Cl)ccc42)N(c2cc(Cl)ccc2C)C3=O)c(OC)c1 [Example R-9, (R)-6-chloro-5′-(5-chloro-2-methylphenyl)-2′-(2,4-dimethoxyphenyl)-3′-isopropyl-3′H-spiro[dihydroindole-3,4′-pyrrolo[3,4-d]imidazole]-2,6′(5′H)-dione]
IC50 [1]: 332 nM
IC50 [2, 3]: 2820 nM

COc1cnccc1-c1nc2c(n1C(C)C)[C@]1(C(=O)Nc3cc(Cl)ccc31)N(c1cc(Cl)ccc1C)C2=O [Example R-10, (R)-6-chloro-5′-(5-chloro-2-methylphenyl)-3′-isopropyl-2′-(3-methoxypyridin-4-yl)-3′H-spiro[dihydroindole-3,4′-pyrrolo[3,4-d]imidazole]-2,6′(5′H)-dione]
IC50 [1]: 117 nM
IC50 [2, 3]: 2170 nM

COc1cc(OC)c(-c2nc3c(n2C(C)C)[C@]2(C(=O)Nc4cc(Cl)ccc42)N(c2cc(Cl)ccc2C)C3=O)cn1 [Example R-11, (R)-6-chloro-5′-(5-chloro-2-methylphenyl)-2′-(4,6-dimethoxypyridin-3-yl)-3′-isopropyl-3′H-spiro[dihydroindole-3,4′-pyrrolo[3,4-d]imidazole]-2,6′(5′H)-dione]
IC50 [1]: 257 nM
IC50 [2, 3]: 1510 nM

COc1cc(C#N)ccc1-c1nc2c(n1C(C)C)[C@]1(C(=O)Nc3cc(Cl)ccc31)N(c1cc(Cl)ccc1C)C2=O [Example R-12, (R)-4-(6-chloro-5′-(5-chloro-2-methylphenyl)-3′-isopropyl-2,6′-dioxo-5′,6′-dihydro-3′H-spiro[dihydroindole-3,4′-pyrrolo[3,4-d]imidazole]-2′-yl)-3-methoxybenzonitrile]
IC50 [1]: 368 nM
IC50 [2, 3]: 2440 nM

COc1ccc(C#N)cc1-c1nc2c(n1C(C)C)[C@]1(C(=O)Nc3cc(Cl)ccc31)N(c1cc(Cl)ccc1C)C2=O [Example R-13, (R)-3-(6-chloro-5′-(5-chloro-2-methylphenyl)-3′-isopropyl-2,6′-dioxo-5′,6′-dihydro-3′H-spiro[dihydroindole-3,4′-pyrrolo[3,4-d]imidazole]-2′-yl)-4-methoxybenzonitrile]
IC50 [1]: 121 nM
IC50 [2, 3]: 1120 nM

CCc1ccc(Cl)cc1N1C(=O)c2nc(-c3cnc(OC)nc3OC)n(C(C)C)c2[C@]12C(=O)Nc1cc(Cl)ccc12 [Example R-15, (R)-6-chloro-5′-(5-chloro-2-ethylphenyl)-2′-(2,4-dimethoxypyrimidin-5-yl)-3′-isopropyl-3′H-spiro[dihydroindole-3,4′-pyrrolo[3,4-d]imidazole]-2,6′(5′H)-dione]
IC50 [1]: 107 nM
IC50 [2, 3]: 840 nM

COc1ncc(-c2nc3c(n2C(C)C)[C@]2(C(=O)Nc4cc(Cl)ccc42)N(c2cc(Cl)cn(C)c2=O)C3=O)c(OC)n1 [Example R-16, (R)-6-chloro-5′-(5-chloro-1-methyl-2-oxo-1,2-dihydropyridin-3-yl)-2′-(2,4-dimethoxypyrimidin-5-yl)-3′-isopropyl-3′H-spiro[dihydroindole-3,4′-pyrrolo[3,4-d]imidazole]-2,6′(5′H)-dione]
IC50 [1]: 570 nM
IC50 [2, 3]: 20100 nM

COc1ncc(-c2nc3c(n2C(C)C)[C@]2(C(=O)Nc4cc(Cl)ccc42)N(c2cc(Cl)ccc2OC)C3=O)c(OC)n1 [Example R-17, (R)-6-chloro-5′-(5-chloro-2-methoxyphenyl)-2′-(2,4-dimethoxypyrimidin-5-yl)-3′-isopropyl-3′H-spiro[dihydroindole-3,4′-pyrrolo[3,4-d]imidazole]-2,6′(5′H)-dione]
IC50 [1]: 49.4 nM
IC50 [2, 3]: 1310 nM
IC50 ([2]; read-out: IC50 (nM), inhibitory activity on proliferation of human osteosarcoma cell line SJSA-1, SJSA-1, incubated 72 h): 2440 nM

COc1ccncc1-c1nc2c(n1C(C)C)[C@]1(C(=O)Nc3cc(Cl)ccc31)N(c1cc(Cl)ccc1C)C2=O [Example R-18, (R)-6-chloro-5′-(5-chloro-2-methylphenyl)-3′-isopropyl-2′-(4-methoxypyridin-3-yl)-3′H-spiro[dihydroindole-3,4′-pyrrolo[3,4-d]imidazole]-2,6′(5′H)-dione]
IC50 [1]: 158 nM
IC50 [2, 3]: 1620 nM

COc1ncc(-c2nc3c(n2C(C)C)[C@]2(C(=O)Nc4cc(Cl)ccc42)N(c2ccc(C)c(Cl)c2)C3=O)c(OC)n1 [Example R-20, (R)-6-chloro-5′-(3-chloro-4-methylphenyl)-2′-(2,4-dimethoxypyrimidin-5-yl)-3′-isopropyl-3′H-spiro[dihydroindole-3,4′-pyrrolo[3,4-d]imidazole]-2,6′(5′H)-dione]
IC50 [1]: 256 nM
IC50 [2, 3]: 4010 nM

CNC(=O)c1ccc(OC)c(-c2nc3c(n2C(C)C)[C@]2(C(=O)Nc4cc(Cl)ccc42)N(c2cc(Cl)ccc2C)C3=O)c1 [Example R-21, (R)-3-(6-chloro-5′-(5-chloro-2-methylphenyl)-3′-isopropyl-2,6′-dioxo-5′,6′-dihydro-3′H-spiro[dihydroindole-3,4′-pyrrolo[3,4-d]imidazole]-2′-yl)-4-methoxy-N-methylbenzamide]
IC50 [1]: 223 nM
IC50 [2, 3]: 5230 nM

COc1ccc(C(=O)N(C)C)cc1-c1nc2c(n1C(C)C)[C@]1(C(=O)Nc3cc(Cl)ccc31)N(c1cc(Cl)ccc1C)C2=O [Example R-22, (R)-3-(6-chloro-5′-(5-chloro-2-methylphenyl)-3′-isopropyl-2,6′-dioxo-5′,6′-dihydro-3′H-spiro[dihydroindole-3,4′-pyrrolo[3,4-d]imidazole]-2′-yl)-4-methoxy-N,N-dimethylbenzamide]
IC50 [1]: 627 nM
IC50 [2, 3]: 6950 nM

COc1cc(N(C)C)ccc1-c1nc2c(n1C(C)C)[C@]1(C(=O)Nc3cc(Cl)ccc31)N(c1cc(Cl)ccc1C)C2=O [Example R-23, (R)-6-chloro-5′-(5-chloro-2-methylphenyl)-2′-(4-(dimethylamino)-2-methoxyphenyl)-3′-isopropyl-3′H-spiro[dihydroindole-3,4′-pyrrolo[3,4-d]imidazole]-2,6′(5′H)-dione]
IC50 [1]: 175 nM
IC50 [2, 3]: 354 nM

COc1cc(C)ccc1-c1nc2c(n1C(C)C)[C@]1(C(=O)Nc3cc(Cl)ccc31)N(c1cc(Cl)ccc1C)C2=O [Example R-24, (R)-6-chloro-5′-(5-chloro-2-methylphenyl)-3′-isopropyl-2′-(2-methoxy-4-methylphenyl)-3′H-spiro[dihydroindole-3,4′-pyrrolo[3,4-d]imidazole]-2,6′(5′H)-dione]
IC50 [1]: 392 nM
IC50 [2, 3]: 872 nM

CNc1ccc(-c2nc3c(n2C(C)C)[C@]2(C(=O)Nc4cc(Cl)ccc42)N(c2cc(Cl)ccc2C)C3=O)c(OC)c1 [Example R-25, (R)-6-chloro-5′-(5-chloro-2-methylphenyl)-3′-isopropyl-2′-(2-methoxy-4-(methylamine)phenyl)-3′H-spiro[dihydroindole-3,4′-pyrrolo[3,4-d]imidazole]-2,6′(5′H)-dione]
IC50 [1]: 51.9 nM
IC50 [2, 3]: 265 nM

CCn1c(-c2cnc(OC)nc2OC)nc2c1[C@]1(C(=O)Nc3cc(Cl)ccc31)N(c1cc(Cl)ccc1C)C2=O [Example R-26, (R)-6-chloro-5′-(5-chloro-2-methylphenyl)-2′-(2,4-dimethoxypyrimidin-5-yl)-3′-ethyl-3′H-spiro[dihydroindole-3,4′-pyrrolo[3,4-d]imidazole]-2,6′(5′H)-dione]
IC50 [1]: 236 nM
IC50 [2, 3]: 3650 nM

COc1ccc(C(N)=O)cc1-c1nc2c(n1C(C)C)[C@]1(C(=O)Nc3cc(Cl)ccc31)N(c1cc(Cl)ccc1C)C2=O [Example R-29, (R)-3-(6-chloro-5′-(5-chloro-2-methylphenyl)-3′-isopropyl-2,6′-dioxo-5′,6′-dihydro-3′H-spiro[dihydroindole-3,4′-pyrrolo[3,4-d]imidazole]-2′-yl)-4-methoxybenzamide]
IC50 [1]: 93.6 nM
IC50 [2, 3]: 10900 nM
